Assay results from US12630500B2, “Hexasubstituted radialene compounds and applications thereof” (THE UNIVERSITY OF NORTH CAROLINA AT CHARLOTTE, priority 2019, dated 2026).

Columns and labels:
[1] = Aqueous solubility by UV/Vis spectroscopy; assay type: physicochemical; conditions: for Solubility / Radical Anion Solubility: aqueous; for Solubility: dianionic state (disodium salt); for Radical Anion Solubility: radical anionic state
Procedure: One nitrile group was systematically substituted at a time in an effort to preserve the favorable oxidation potential of the redox couple. To this end, a series of asymmetric, ester-substituted, [3] radialene species (FIG. 3, Compounds 1-4) were prepared via the zwitterionic synthetic method. The aqueous solubilities of these compounds in both the dianionic and radical anionic states were determined using UV/Vis spectroscopy (Table 1).

[2] = Conductivity of aqueous solutions; assay type: physicochemical; conditions: for Conductivity: first value of the pair; for Conductivity (value in parentheses): not defined in the patent
[3] = Cyclic voltammetry in water (GC working electrode, Ag/AgCl reference); assay type: physicochemical; conditions: for E^ox1/2 / ipc/ipa: in water
From the text: FIG. 2A provides cyclic voltammograms of a hexasubstituted radialene dianion ([…]) using a glassy carbon (GC) working electrode, platinum auxiliary electrode, and Ag/AgCl reference electrode measured at various scan rates (10-700 mV/s) in water.
(§1) Hexacyano[3] radialene was initially used as a model system to probe the efficacy of hexasubstituted radialenes as redox couples in pH 7 aqueous solutions. A prerequisite for a practical aqueous catholyte is a high oxidation potential that occurs within the electrochemical window of water. The electrochemistry of [C6(CN)6]^2− as a tetrabutylammonium (TBA) salt in organic solvents only. […] Using cyclic voltammetry (CV), it was first established that the one electron oxidation of the dianion to the radical anion occurs at a potential favorable for use as a catholyte for RFBs, 480 mV.
(§2) This value was almost identical to the diffusion coefficients of hydrophilic ferrocene derivatives in neutral pH solutions of NaCl. […] Such chemical stability is essential for durable RFB electrolytes.

[4] = Stability in air and thermal stability; assay type: physicochemical
From the text: Hexacyano[3] radialene (Na2C6(CN)6), compound 1 in FIG. 3, was synthesized at low temperatures, on a large scale, and in high yield (for example 45 g, 91%). This convenient synthesis uses inexpensive precursors (tetrachlorcyclopropene (TCCP) and malononitrile), reagents (sodium hydride), and solvent (glyme). […] Furthermore, this compound is stable in air, and can be sequentially oxidized in two single-electron transfers. The product of the first oxidation, radical anion the compound ·- is particularly persistent. […] Remarkably, the radical anion is thermally stable to above 180° C. The inherent stability of the compound and persistence of the radical anion ·- signifies that the redox couple is favorable for use in a RFB, a device in which long lifespan is required. Finally, aqueous solutions of the dianion are colorless, while the radical anion produces a deep blue color when dissolved. This is advantageous for visually following the charge-discharge characteristics of proposed RFBs.

[5] = assay type: physicochemical
From the text: as §1, §2
Diester compound 3 was selected for further analysis due to its favorable solubility in both redox states and its adequate oxidation potential in water. Electrochemical studies of compound 3 were performed to gauge its stability and galvanostatic cycling performance in aqueous solution. […] This assuages concerns of the possibility of ester hydrolysis. Next, a symmetrical H-cell with a cation-exchange membrane separator was used for aqueous galvanostatic charge-discharge experiments (FIG. 4B). The compound 3 undergoes steady cycling over a period of 12 days (50 cycles). […] The higher relative capacity retention was ascribed to the asymmetry and non-planarity of the diester congener, which helps limit dimerization interactions.

[6] = Cyclic voltammetry in water (GC working electrode, Ag/AgCl reference); assay type: physicochemical; conditions: Randles-Sevcik equation, scan rates 0-700 mV/s
[7] = reported catholytes for neutral aqueous RFBs; cited from earlier work

| Structure (SMILES) | Solubility [1] [mM] | Radical Anion Solubility [1] [mM] | solubility in water ([1]; dianion) [mM] | Conductivity [2] [mS/cm] | Conductivity (value in parentheses) [2] | potential of one electron oxidation of dianion to radical anion ([3]; cyclic voltammetry, aqueous pH 7) [mV] | E^ox1/2 [3] [V] | ipc/ipa [3] | stability in air ([4]; dianion compound) | thermal stability of radical anion ([4]; radical anion) | storage of radical anion in air ([4]; radical anion, isolated via chemical oxidation) | stability in aqueous solutions ([5]; pH 7) | diffusion coefficient for the electron transfer process [6] | solubility in water ([1]; disodium salt) [mM] | conductivity of aqueous solutions without supporting electrolyte ([2]; 0.1 M, without NaCl) | stability of dianion in water [5] | change in peak current height on standing ([5]; solutions of dianion and radical anion left five days) | oxidation potential [7] [mV] |
| --- | --- | --- | --- | --- | --- | --- | --- | --- | --- | --- | --- | --- | --- | --- | --- | --- | --- | --- |
| N#CC(C#N)=C1C([C-](C#N)C#N)=C1[C-](C#N)C#N.[Na+].[Na+] [Compound 1, Hexacyano[3] radialene (Na2C6(CN)6)] | <100 | <25 | 25 | 13.2 | (0.147) mS/cm | 480 | 0.48 | 1.03 | stable in air | above 180 °C | stored in air indefinitely | stable | 3.71×10^−6 cm^2/s | – | – | – | no significant changes in peak current height | – |
| COC(=O)C(C#N)=C1C([C-](C#N)C#N)=C1[C-](C#N)C#N.[Na+].[Na+] [Compound 2] | 190 | 80 | – | 15.7 | (2.36) mS/cm | – | 0.4 | 0.97 | – | – | – | – | – | – | – | – | – | – |
| CC1(C)CC(O)CC(C)(C)N1[O] [4-hydroxy-TEMPO] | – | – | – | – | – | – | – | – | – | – | – | – | – | – | – | – | – | 610 |

Second part, led by results:

| Solubility [1] [mM] | Radical Anion Solubility [1] [mM] | solubility in water ([1]; dianion) [mM] | Conductivity [2] [mS/cm] | Conductivity (value in parentheses) [2] | potential of one electron oxidation of dianion to radical anion ([3]; cyclic voltammetry, aqueous pH 7) [mV] | E^ox1/2 [3] [V] | ipc/ipa [3] | stability in air ([4]; dianion compound) | thermal stability of radical anion ([4]; radical anion) | storage of radical anion in air ([4]; radical anion, isolated via chemical oxidation) | stability in aqueous solutions ([5]; pH 7) | diffusion coefficient for the electron transfer process [6] | solubility in water ([1]; disodium salt) [mM] | conductivity of aqueous solutions without supporting electrolyte ([2]; 0.1 M, without NaCl) | stability of dianion in water [5] | Structure (SMILES) | change in peak current height on standing ([5]; solutions of dianion and radical anion left five days) | oxidation potential [7] [mV] |
| --- | --- | --- | --- | --- | --- | --- | --- | --- | --- | --- | --- | --- | --- | --- | --- | --- | --- | --- |
| 820 | <25 | – | 39 | (0.23) mS/cm | – | 0.27 | 1.15 | – | – | – | – | – | – | – | – | COC(=O)C(C#N)=C1C([C-](C#N)C(=O)OC)=C1[C-](C#N)C(=O)OC.[Na+].[Na+] (stereo not drawn) [Compound 4] | – | – |
| 450 | 170 | – | 36.7 | (23.2) mS/cm | – | 0.35 | 1.06 | – | – | – | – | – | 850 | sufficiently conductive | stable in water | COC(=O)[C-](C#N)C1=C([C-](C#N)C(=O)OC)C1=C(C#N)C#N.[Na+].[Na+] (stereo not drawn) [Compound 3, diester-tetracyano [3] radialene dianion] | – | – |
